Results on 15 compounds are retold here after PubChem BioAssay (NCI).

Structures are written as SMILES. Several values for one entry are separate records, joined by “and”; a condition that tells them apart may be missing. Equal values may be shown once.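 Compound exposure: 48 hours, 5 concentrations, 96-well plates. Here, GI50 denotes the concentration required for 50% inhibition of growth. TGI marks complete inhibition of growth.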 Where only a bound is given, the exact number is not on record here.

Holding throughout (test): NCI-60 cell line screen, 48 h
Assay [1] deals with MALME-3M melanoma.
Assay [2] has as its system OVCAR-8 ovarian.
Assay [3] deals with TK-10 renal.
The subject of assay [4] is HOP-92 NSCLC.
Assay [5] concerns 786-0 renal.
Assay [6] concerns NCI-H23 lung.
In assay [7] the test system is HCC-2998 colon.
The test system of assay [8] is MOLT-4 leukemia.
Assay [9] concerns CAKI-1 renal.
Assay [10] concerns NCI-H522 lung.

`CC(=O)c1c(C)[nH]c(-c2nc3ccc(N4CCN(C)CC4)cc3[nH]2)c1-c1ccc(OCC2CCOCC2)cc1`: the GI50 in assay [1] was 0.72 µM; in assay [2], 1.5 µM; in assay [3] it was 0.306 µM; in [4], 0.11 µM; in assay [5], 1.31 µM; in assay [6], 1.32 µM. In addition, the GI50 in assay [7] is 0.766 µM; in [8], 1.63 µM; in assay [9] it was 0.326 µM; in assay [10], 0.548 µM. Besides, the TGI came out at 2.57 µM in assay [1]; 27.9 µM in [2]; 16.8 µM in assay [3]; 2.79 µM in assay [4]; 14.5 µM in [5]; 18.3 µM in assay [6]. Further, the TGI came to 3.31 µM in assay [7], 20.6 µM in assay [8], 12.6 µM in [9] and 13.8 µM in [10].

`CC(C)c1ccc(C(=O)Nc2nc3ccc(O)cc3s2)cc1`: the GI50 is 0.684 µM in [1]; 1.48 µM in [2]; 8.98 µM in assay [3]; 5.18 µM in assay [4]; 0.866 µM in assay [5]; 3.52 µM in assay [6]. Also, the GI50 is 0.371 µM in assay [7], 0.246 µM in assay [8], 0.845 µM in assay [9] and 0.693 µM in assay [10]. In addition, the TGI in [1] was above 100 µM; in [2], above 100 µM; in assay [3], above 100 µM; in assay [4] it was 55 µM; in assay [5], 6.09 µM; in assay [6] it was above 100 µM. In addition, the TGI in assay [7] is 1.81 µM; in [8], above 100 µM; in assay [9], above 100 µM; in assay [10], above 100 µM.

Take `Cn1c([N+](=O)[O-])cnc1/C=C1\Oc2ccccc2C1=O`: the GI50 was 0.626 µM in assay [1]; 0.186 µM in [2]; 1.29 µM in assay [3]; 0.762 µM in [4]; 0.203 µM in assay [5]; 0.37 µM in assay [6]. The GI50 in assay [7] was 1.9 µM; in assay [8], 0.159 µM; in assay [9], 0.24 µM; in assay [10] it was 0.552 µM. For the same compound, the TGI in assay [1] came out at 3.2 µM; in assay [2] it was 0.677 µM; in assay [3], 7.77 µM; in assay [4] it was 3.37 µM; in assay [5], 3.67 µM; in assay [6], 2.61 µM. In addition, the TGI amounted to 5.06 µM in assay [7], 0.758 µM in assay [8], 0.601 µM in assay [9] and 2.26 µM in assay [10].

As to `CC[C@H](NC(=O)[C@H](C)NC)C(=O)N1C[C@@H](O)C[C@H]1Cc1c(-c2[nH]c3cc(F)ccc3c2C[C@@H]2C[C@H](O)CN2C(=O)[C@H](CC)NC(=O)[C@H](C)NC)[nH]c2cc(F)ccc12`, the GI50 in [1] was above 100 µM; in assay [2] it was 31.2 µM; in assay [3], above 100 µM; in [4], 7.7 µM; in [5], above 100 µM; in [6], above 65.3 µM. The GI50 is 96.9 µM in [7], 74.4 µM in assay [8], above 100 µM in [9] and 8.21 µM in [10]. The TGI in [1] was above 100 µM; in assay [2], above 100 µM; in assay [3], above 100 µM; in assay [4], 40.8 µM; in assay [5], above 100 µM; in assay [6], above 100 µM. Besides, the TGI in assay [7] is above 100 µM; in assay [8], above 100 µM; in assay [9], above 100 µM; in [10], 35.1 µM.

As to `CO[C@@H]1/C=C\C=C(/C)C(=O)NC2=CC(=O)C(NCCN(C)C)=C(C[C@@H](C)C[C@@H](OC)[C@@H](O)[C@H](C)/C=C(\C)[C@H]1OC(N)=O)C2=O`, the TGI was 3.73 µM and 0.562 µM in assay [1]; 2.95 µM and 6.36 µM in [2]; 24 µM and 34.7 µM in [3]; 11.7 µM and 2.1 µM in assay [4]; 15 µM and 26.9 µM in assay [5]; 7.14 µM in [6]. In addition, the TGI in assay [8] was 1.02 µM and 8.39 µM; in assay [9], 12.2 µM and 29.2 µM; in [10] it was 0.709 µM and 3.57 µM. The GI50 in assay [2] was 0.0216 µM; in assay [4], 0.966 µM and 0.175 µM; in [5], 0.0589 µM; in assay [6] it was below 0.0125 µM; in assay [7] it was 0.0197 µM; in assay [8] it was 0.0444 µM. Also, the GI50 in assay [9] is 0.485 µM and 1.38 µM; in assay [10] it was < 0.01 µM and 0.0228 µM.

On to `C=C1C(=O)O[C@H]2[C@H]1CC/C(CNC(=O)c1cc3cc(OC)ccc3[nH]1)=C\CC[C@@]1(C)O[C@@H]21`, for which the GI50 in [1] was 1.62 µM; in [2], 2.06 µM; in [3], 1.88 µM; in [4] it was 1.56 µM; in [5] it was 1.51 µM; in [6], 1.77 µM. Further, the GI50 in [7] was 1.66 µM; in assay [8], 2.08 µM; in assay [9], 1.97 µM; in [10] it was 0.7 µM. The TGI in assay [1] stood at 3.98 µM; in assay [2], 7.78 µM; in assay [3] it was 4.61 µM; in assay [4], 3.35 µM; in assay [5], 3.2 µM; in assay [6] it was 4.38 µM. The TGI worked out at 3.26 µM in assay [7], 6.85 µM in [8], 6.25 µM in assay [9] and 2.55 µM in [10].

Consider `O=S(=O)(NC1=NCCN1C(=S)SN1CCn2c1nsc2=S)c1ccc(Br)cc1`, for which the GI50 was 11.7 µM in [1]; 25.8 µM in assay [2]; 22 µM in assay [3]; 0.0273 µM in [4]; 31 µM in [5]; 53.2 µM in assay [6]. In addition, the GI50 in assay [7] is 63.9 µM; in [8], 27.1 µM; in [9], 12.6 µM; in assay [10] it was 15 µM. For the same compound, the TGI in assay [1] was 56.3 µM; in assay [2] it was 68.8 µM; in assay [3], 83.5 µM; in assay [4], 36.7 µM; in [5], above 100 µM; in assay [6] it was above 100 µM. Moreover, the TGI in assay [7] is above 100 µM; in assay [8], above 100 µM; in assay [9], above 100 µM; in assay [10], 36.8 µM.

Regarding `CC1=C(C(=O)Nc2ccccc2C)C(c2ccc(Cl)c(Cl)c2)C(C(=O)Nc2ccccc2C)=C(C)N1`, the TGI in [1] is 52.3 µM; in assay [2] it was above 100 µM; in assay [3], above 100 µM; in assay [4] it was 33.4 µM; in [5] it was 67.3 µM; in assay [6], 56.7 µM. Besides, the TGI in assay [7] was 69.9 µM; in assay [8], 48.8 µM; in assay [9] it was above 100 µM; in [10], 29.1 µM.

As for `Cc1cc(C)c([O-])c(CN(C)CCN(C)Cc2cc(C)cc(C)c2[O-])c1.O=C([O-])c1cccc(C(=O)[O-])n1.[Ti+4]`, the GI50 in assay [1] is 1.45 µM; in assay [2], 2.8 µM; in [3] it was 1.71 µM; in [4], 2.51 µM; in assay [5], 1.83 µM; in [6], 2.03 µM. Besides, the GI50 in assay [7] was 2.98 µM; in assay [8], 3.12 µM; in assay [9] it was 3.93 µM; in assay [10], 2.08 µM. Moreover, the TGI in assay [1] was 5.21 µM; in assay [2] it was above 100 µM; in [3] it was 5.47 µM; in [4], 6.47 µM; in [5], above 100 µM; in [6], 5.06 µM. Further, the TGI in assay [7] was above 100 µM; in assay [8] it was above 100 µM; in assay [9], above 100 µM; in assay [10], 5.47 µM.

In the case of `COc1cc(OC)cc(C2CC(=O)Nc3c2c(C)nn3-c2nc3ccccc3[nH]2)c1` (configuration not stated), the GI50 in assay [1] was 3.66 µM; in assay [2], 3.97 µM; in assay [3] it was 3.04 µM; in assay [4], 2.59 µM; in assay [5], 2.84 µM; in [6], 2.79 µM. Moreover, the GI50 in [7] was 3.7 µM; in assay [8], 0.0728 µM; in [9], 3.36 µM; in [10] it was 2.08 µM. The TGI in assay [1] was above 100 µM; in assay [2] it was above 100 µM; in assay [3], 45.5 µM; in assay [4], 6.63 µM; in assay [5], 9.89 µM; in assay [6], 7.73 µM. The TGI came out at 56.5 µM in [7], 0.434 µM in [8], 11 µM in assay [9] and 5.58 µM in assay [10].

Regarding `Cc1ccccc1NC(=O)N/C(N)=N/c1nc(-c2cccc([N+](=O)[O-])c2)cs1`, the GI50 in [1] was 0.943 µM; in assay [2], 2.88 µM; in assay [3] it was 5.33 µM; in assay [4], 2.15 µM; in assay [5] it was 2.21 µM; in [6], 1.94 µM. The GI50 is 3.16 µM in [7], 3.39 µM in [8], 1.16 µM in assay [9] and 1.79 µM in assay [10]. Further, the TGI in assay [1] worked out at 4.73 µM; in assay [2], 15.2 µM; in assay [3], 14.6 µM; in [4], 6.6 µM; in assay [5], 4.55 µM; in [6] it was 6.49 µM. The TGI is above 100 µM in assay [7], above 100 µM in assay [8], 3.16 µM in assay [9] and above 100 µM in assay [10].

In the case of `O=c1c2c(nc3n1CCS3)[nH]c1ccccc12`, the GI50 in [1], in assay [2], in [3], in [4], in [5] and in assay [6] was above 100 µM throughout. Also, the GI50 in [7] is above 100 µM; in [8] it was above 100 µM; in assay [9], 76.8 µM; in assay [10], above 100 µM. The TGI in assay [1], in [2], in [3], in assay [4], in assay [5] and in assay [6] was above 100 µM each time. In addition, the TGI in [7], in [8], in assay [9] and in assay [10] was above 100 µM each time.

As for `CCN(CC)CCCC(C)Nc1c2ccc(Cl)cc2nc2ccc(OC)cc12` (configuration not stated), the TGI in assay [1] is 3.79 µM and 3.3 µM; in [2], 5.64 µM and 5.73 µM; in assay [3] it was 11.8 µM and 13 µM; in assay [4], 3.17 µM and 2.53 µM; in assay [5], 4.15 µM and 4.77 µM; in assay [6] it was 4.11 µM and 3.27 µM. In addition, the TGI is 2.9 µM and 2.69 µM in assay [7]; 4.34 µM and 2.52 µM in assay [8]; 4.37 µM and 4.5 µM in [9]; 2.97 µM in assay [10]. Also, the GI50 in assay [2] was 1.23 µM; in [4] it was 0.811 µM; in [5] it was 1.88 µM; in assay [8], 0.863 µM; in [9], 1.99 µM.

In the case of `O=C(Nc1cc(Cl)c(Cl)cc1Cl)C(=O)C1C=CCS1(=O)=O` (configuration not stated), the TGI in [1], in [2], in assay [3], in assay [4], in [5] and in assay [6] was above 100 µM throughout. In addition, the TGI in [7], in [8], in [9] and in assay [10] was above 100 µM in each case.

As to `COc1cc(Nc2nccc(Nc3ccc4c(C)[nH]nc4c3)n2)cc(OC)c1OC`, the GI50 in [1] was 1.4 µM; in [2] it was 3.39 µM; in assay [3] it was 0.908 µM; in assay [4], 0.191 µM; in assay [5] it was 2.93 µM; in assay [6], 2.51 µM. Further, the GI50 in assay [7] is 3.17 µM; in assay [8], 4.87 µM; in [9], 1.05 µM; in assay [10] it was 1.52 µM. In addition, the TGI was found to be 10.2 µM in assay [1]; 10.2 µM in [2]; 3.88 µM in assay [3]; 1.38 µM in [4]; 9.7 µM in assay [5]; 7.82 µM in [6]. Further, the TGI in assay [7] stood at 8.46 µM; in assay [8], 19.2 µM; in assay [9], 4.62 µM; in assay [10] it was 7.18 µM.
